The values that follow are results of earlier work, collected in patent publication US9795593B2, “Use of 3-(3-[1,2,4]-triazolo)-oxatriazolium-5-olate for treating sexual disorders” (LIMITED LIABILITY COMPANY “KONSORTSIUM-PIK”, priority 2014, dated 2017).

Data set [1] has as its system model of L-NAME-induced NO deficiency. As to conditions: cited from earlier work.
In data set [2] the test system is NO-synthase. As to conditions: 7-day-long administration of L-NAME; cited from earlier work.
For data set [3] the following is noted: 7-day-long administration of L-NAME; cited from earlier work.
[4] abbreviates: Nicorandil (4 mg/kg) preconditioning.

As for `COc1ccc(Cl)cc1C(=O)NCCc1ccc(S(=O)(=O)NC(=O)NC2CCCCC2)cc1` [Glibenclamide], the “effect on protective effects of preconditioning” value in data set [1] (Glibenclamide 4 mg/kg, blockade of ATP-dependent potassium channels) is on record as “neutralized protective effects”.

Take `COC(=O)[C@@H](N)CCCNC(=N)N[N+](=O)[O-].Cl` [L-NAME, N-omega-nitro-L-arginine methyl ester hydrochloride]: in data set [2], the “mean diastolic BP” value is recorded as 146.0±4.2 mm Hg and the “mean systolic blood pressure” value was 191.3±7.1 mm Hg. In data set [3], the “increase of endothelial dysfunction ratio” value is recorded as 5 fold.

As to `O=C(NCCO[N+](=O)[O-])c1cccnc1` [Nicorandil], in data set [1] (setting [4]), the CRP was 0.6 ± 0.1 mg/dL, the NO level is given as 6.2±0.25 mcmol/L, the “endothelial dysfunction ratio (EDR)” value is 1.76±0.18 AU and the “myocardium contractility during resistance testing” value was 77.2±8.3%.
